This is an account of results in US20220002314A1 (priority 2018, published 2022).

Each structure is given as a SMILES string. Where two headings read alike, the source gives them in different places.

The target in assay [1] is Human α2δ-1 subunit of Cav2.2 calcium channel (Homo sapiens, UniProt P54289). The assay can be described thus: biochemical. Type of assay: binding.
In another assay the target is Human μ-opioid receptor (Homo sapiens, UniProt P35372). The assay can be described thus: biochemical. Type of assay: binding.
Human μ-opioid receptor, sequence (P35372 whole entry): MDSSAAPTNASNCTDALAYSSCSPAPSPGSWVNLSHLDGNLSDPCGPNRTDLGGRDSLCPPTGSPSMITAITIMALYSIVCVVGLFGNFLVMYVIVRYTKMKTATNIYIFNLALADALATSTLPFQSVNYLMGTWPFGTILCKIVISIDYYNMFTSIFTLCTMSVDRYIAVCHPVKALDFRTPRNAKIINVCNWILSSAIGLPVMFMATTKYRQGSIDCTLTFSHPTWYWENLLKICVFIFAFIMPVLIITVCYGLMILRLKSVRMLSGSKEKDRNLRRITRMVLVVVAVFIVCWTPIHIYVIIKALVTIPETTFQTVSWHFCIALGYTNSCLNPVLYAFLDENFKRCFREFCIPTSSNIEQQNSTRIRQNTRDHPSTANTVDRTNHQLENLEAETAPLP

Human α2δ-1 subunit of Cav2.2 calcium channel, sequence (P54289 25-1103): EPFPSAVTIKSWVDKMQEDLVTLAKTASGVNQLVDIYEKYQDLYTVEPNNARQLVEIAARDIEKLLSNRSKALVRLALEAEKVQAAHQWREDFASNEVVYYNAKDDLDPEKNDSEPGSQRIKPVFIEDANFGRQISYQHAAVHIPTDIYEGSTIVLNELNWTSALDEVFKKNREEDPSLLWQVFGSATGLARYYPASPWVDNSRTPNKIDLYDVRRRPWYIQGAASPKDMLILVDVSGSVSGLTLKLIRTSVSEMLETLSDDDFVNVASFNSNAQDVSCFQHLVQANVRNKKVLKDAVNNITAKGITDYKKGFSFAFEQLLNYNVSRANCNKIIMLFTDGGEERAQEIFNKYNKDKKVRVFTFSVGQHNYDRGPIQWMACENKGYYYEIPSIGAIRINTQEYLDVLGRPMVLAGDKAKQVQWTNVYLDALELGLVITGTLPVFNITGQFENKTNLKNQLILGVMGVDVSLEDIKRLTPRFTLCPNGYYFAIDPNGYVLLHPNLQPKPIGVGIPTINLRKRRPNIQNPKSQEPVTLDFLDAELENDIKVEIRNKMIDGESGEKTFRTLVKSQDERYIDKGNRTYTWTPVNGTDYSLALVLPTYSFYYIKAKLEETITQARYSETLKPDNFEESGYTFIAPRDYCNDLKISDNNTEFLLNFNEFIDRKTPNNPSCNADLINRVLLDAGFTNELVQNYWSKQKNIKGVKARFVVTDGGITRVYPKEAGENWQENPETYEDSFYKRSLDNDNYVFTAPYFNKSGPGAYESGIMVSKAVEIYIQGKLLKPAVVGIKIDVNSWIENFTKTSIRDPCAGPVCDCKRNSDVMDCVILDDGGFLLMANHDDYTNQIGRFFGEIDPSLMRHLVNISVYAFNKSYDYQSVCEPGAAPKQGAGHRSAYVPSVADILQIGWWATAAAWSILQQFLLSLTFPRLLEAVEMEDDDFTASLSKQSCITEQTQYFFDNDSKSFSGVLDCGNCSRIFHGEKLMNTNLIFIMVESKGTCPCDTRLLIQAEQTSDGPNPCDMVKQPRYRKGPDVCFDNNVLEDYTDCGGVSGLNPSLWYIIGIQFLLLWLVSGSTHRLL

With `CCC[C@H](c1nc2ccc(Br)cc2c(=O)n1CC)[C@H]1CCNCC1(F)F` (single isomer, unassigned) [Example 189], the Ki is < 500 nM in assay [1] and > 500 nM on Human μ-opioid receptor.
On to `CCCC(c1nc2ccc(Br)cc2c(=O)n1CC)N1C[C@@H](C)N[C@@H](C)C1` (stereo partly drawn) [Example 1, 6-Bromo-2-(1-((3S,5R)-3,5-dimethylpiperazin-1-yl)butyl)-3-ethylquinazolin-4(3H)-one], for which the Ki in assay [1] is < 500 nM; at Human μ-opioid receptor, > 500 nM.
With `CCCC(c1nc2ccccc2c(=O)n1C)N1C[C@@H](C)N[C@@H](C)C1` (stereo partly drawn) [Example 2, 2-(1-((3S,5R)-3,5-dimethylpiperazin-1-yl)butyl)-3-methylquinazolin-4(3H)-one], the Ki in assay [1] is < 500 nM; at Human μ-opioid receptor, > 500 nM.
For the compound `CCCC(c1nc2cc(C)ccc2c(=O)n1CC)N1C[C@@H](C)N[C@@H](C)C1` (stereo partly drawn) [Example 4, 2-(1-((3S,5R)-3,5-dimethylpiperazin-1-yl)butyl)-3-ethyl-7-methylquinazolin-4(3H)-one], the Ki in assay [1] was < 500 nM; at Human μ-opioid receptor it was > 500 nM.
Consider `CCCC(c1nc2c(Br)c(OC)ccc2c(=O)n1CC)N1C[C@@H](C)N[C@@H](C)C1` (stereo partly drawn) [Example 5, 8-bromo-2-(1-((3S,5R)-3,5-dimethylpiperazin-1-yl)butyl)-3-ethyl-7-methoxyquinazolin-4(3H)-one], for which the Ki in assay [1] (read-out: α2δ-1 binding) is 500 to 5000 nM; at Human μ-opioid receptor (read-out: μ-binding), > 500 nM.
Take `CCCC(c1nc2cc(OC)ccc2c(=O)n1CC)N1C[C@@H](C)N[C@@H](C)C1` (stereo partly drawn) [Example 6, 2-(1-((3S,5R)-3,5-dimethylpiperazin-1-yl)butyl)-3-ethyl-7-methoxyquinazolin-4(3H)-one]: the Ki in assay [1] is < 500 nM; on Human μ-opioid receptor, > 500 nM.
For `CCCC(c1nc2cc(C(=O)OC)ccc2c(=O)n1CC)N1C[C@@H](C)N[C@@H](C)C1` (stereo partly drawn) [Example 7, methyl 2-(1-((3S,5R)-3,5-dimethylpiperazin-1-yl)butyl)-3-ethyl-4-oxo-3,4-dihydroquinazoline-7-carboxylate] the same measures were < 500 nM and 100 to 500 nM.
For `CCCC(c1nc2cc(Br)ccc2c(=O)n1CC)N1C[C@@H](C)N[C@@H](C)C1` (stereo partly drawn) [Example 9, 7-bromo-2-(1-((3S,5R)-3,5-dimethylpiperazin-1-yl)butyl)-3-ethylquinazolin-4(3H)-one] the same measures were < 500 nM and > 500 nM.
On to `CCCC(c1nc2cc(O)ccc2c(=O)n1C)N1C[C@@H](C)N[C@@H](C)C1` (stereo partly drawn) [Example 10, 2-(1-((3S,5R)-3,5-dimethylpiperazin-1-yl)butyl)-7-hydroxy-3-methylquinazolin-4(3H)-one], for which the Ki in assay [1] is < 500 nM; at Human μ-opioid receptor, > 500 nM.
Regarding `CCCC(c1nc2cc(F)ccc2c(=O)n1CC)N1C[C@@H](C)N[C@@H](C)C1` (stereo partly drawn) [Example 11, 2-(1-((3S,5R)-3,5-dimethylpiperazin-1-yl)butyl)-3-ethyl-7-fluoroquinazolin-4(3H)-one], the Ki is < 500 nM in assay [1] and > 500 nM at Human μ-opioid receptor.
Taken in the same sequence, the figures for `CCCC(c1nc2ccc(O)cc2c(=O)n1CC)N1C[C@@H](C)N[C@@H](C)C1` (stereo partly drawn) [Example 12, 2-(1-((3S,5R)-3,5-dimethylpiperazin-1-yl)butyl)-3-ethyl-6-hydroxyquinazolin-4(3H)-one] were < 500 nM and > 500 nM.
As for `CCCC(c1nc2c(Br)cccc2c(=O)n1CC)N1C[C@@H](C)N[C@@H](C)C1` (stereo partly drawn) [Example 13, 8-bromo-2-(1-((3S,5R)-3,5-dimethylpiperazin-1-yl)butyl)-3-ethylquinazolin-4(3H)-one], the values for the Ki (in assay [1]; on Human μ-opioid receptor (read-out: μ-binding)) were > 5000 nM and > 500 nM, respectively.
In the case of `CCCC(c1nc2cccc(Br)c2c(=O)n1CC)N1C[C@@H](C)N[C@@H](C)C1` (stereo partly drawn) [Example 14, 5-bromo-2-(1-((3S,5R)-3,5-dimethylpiperazin-1-yl)butyl)-3-ethylquinazolin-4(3H)-one], the Ki was < 500 nM in assay [1] and > 500 nM on Human μ-opioid receptor.
Turning to `CCCC(c1nc2cccc(O)c2c(=O)n1CC)N1C[C@@H](C)N[C@@H](C)C1` (stereo partly drawn) [Example 15, 2-(1-((3S,5R)-3,5-dimethylpiperazin-1-yl)butyl)-3-ethyl-5-hydroxyquinazolin-4(3H)-one], the Ki in assay [1] was < 500 nM; on Human μ-opioid receptor it was > 500 nM.
Consider `CCCC(c1nc2ccc(Br)cc2c(=O)n1C)N1C[C@@H](C)N[C@@H](C)C1` (stereo partly drawn) [Example 16, 6-bromo-2-(1-((3S,5R)-3,5-dimethylpiperazin-1-yl)butyl)-3-methylquinazolin-4(3H)-one], for which the Ki in assay [1] is < 500 nM; on Human μ-opioid receptor it was > 500 nM.
As for `CCCC(c1nc2cc(Br)ccc2c(=O)n1C)N1C[C@@H](C)N[C@@H](C)C1` (stereo partly drawn) [Example 17, 7-bromo-2-(1-((3S,5R)-3,5-dimethylpiperazin-1-yl)butyl)-3-methylquinazolin-4(3H)-one], the results for the Ki (in assay [1]; at Human μ-opioid receptor) were < 500 nM and > 500 nM, respectively.
As for `CCCC(c1nc2cc(F)c(Br)cc2c(=O)n1CC)N1C[C@@H](C)N[C@@H](C)C1` (stereo partly drawn) [Example 18, 6-bromo-2-(1-((3S,5R)-3,5-dimethylpiperazin-1-yl)butyl)-3-ethyl-7-fluoroquinazolin-4(3H)-one], the figures for the Ki (in assay [1]; at Human μ-opioid receptor) were < 500 nM and > 500 nM, respectively.
With `CCCC(c1nc2cc(C)c(Br)cc2c(=O)n1CC)N1C[C@@H](C)N[C@@H](C)C1` (stereo partly drawn) [Example 19, 6-bromo-2-(1-((3S,5R)-3,5-dimethylpiperazin-1-yl)butyl)-3-ethyl-7-methylquinazolin-4(3H)-one], the Ki in assay [1] was < 500 nM; at Human μ-opioid receptor it was > 500 nM.
As for `CCCC(c1nc2c(C)cc(Br)cc2c(=O)n1CC)N1C[C@@H](C)N[C@@H](C)C1` (stereo partly drawn) [Example 20, 6-bromo-2-(1-((3S,5R)-3,5-dimethylpiperazin-1-yl)butyl)-3-ethyl-8-methylquinazolin-4(3H)-one], the Ki in assay [1] (read-out: α2δ-1 binding) is > 5000 nM; on Human μ-opioid receptor (read-out: μ-binding), > 500 nM.
Take `CCCC(c1nc2ccc(Br)c(C)c2c(=O)n1CC)N1C[C@@H](C)N[C@@H](C)C1` (stereo partly drawn) [Example 21, 6-bromo-2-(1-((3S,5R)-3,5-dimethylpiperazin-1-yl)butyl)-3-ethyl-5-methylquinazolin-4(3H)-one]: the Ki is < 500 nM in assay [1] and > 500 nM at Human μ-opioid receptor.
Consider `CCCC(c1nc2ccc(Br)c(F)c2c(=O)n1CC)N1C[C@@H](C)N[C@@H](C)C1` (stereo partly drawn) [Example 22, 6-bromo-2-(1-((3S,5R)-3,5-dimethylpiperazin-1-yl)butyl)-3-ethyl-5-fluoroquinazolin-4(3H)-one], for which the Ki in assay [1] was < 500 nM; at Human μ-opioid receptor, > 500 nM.
For `CCCC(c1nc2ccc(Br)c(Cl)c2c(=O)n1CC)N1C[C@@H](C)N[C@@H](C)C1` (stereo partly drawn) [Example 23, 6-bromo-5-chloro-2-(1-((3S,5R)-3,5-dimethylpiperazin-1-yl)butyl)-3-ethylquinazolin-4(3H)-one], the Ki in assay [1] was < 500 nM; on Human μ-opioid receptor, > 500 nM.
`CCCC(c1nc2ccc(NCC)cc2c(=O)n1CC)N1C[C@@H](C)N[C@@H](C)C1` (stereo partly drawn) [Example 24, 2-(1-((3S,5R)-3,5-dimethylpiperazin-1-yl)butyl)-3-ethyl-6-(ethylamino)quinazolin-4(3H)-one]: the Ki was < 500 nM in assay [1] and > 500 nM at Human μ-opioid receptor.
For `CCCC(c1nc2cc(NCC)ccc2c(=O)n1CC)N1C[C@@H](C)N[C@@H](C)C1` (stereo partly drawn) [Example 25, 2-(1-((3S,5R)-3,5-dimethylpiperazin-1-yl)butyl)-3-ethyl-7-(ethylamino)quinazolin-4(3H)-one] the same measures were < 500 nM and > 500 nM.
Consider `CCCC(c1nc2cc(N(CC)C(=O)OC(C)(C)C)ccc2c(=O)n1CC)N1C[C@@H](C)N[C@@H](C)C1` (stereo partly drawn) [Example 26, tert-butyl (2-(1-((3S,5R)-3,5-dimethylpiperazin-1-yl)butyl)-3-ethyl-4-oxo-3,4-dihydroquinazolin-7-yl)(ethyl)carbamate], for which the Ki is 500 to 5000 nM in assay [1] (read-out: α2δ-1 binding) and > 500 nM on Human μ-opioid receptor (read-out: μ-binding).
Regarding `CCCC(c1nc2cccnc2c(=O)n1CC)N1C[C@@H](C)N[C@@H](C)C1` (stereo partly drawn) [Example 27, 2-(1-((3S,5R)-3,5-dimethylpiperazin-1-yl)butyl)-3-ethylpyrido[3,2-d]pyrimidin-4(3H)-one], the Ki in assay [1] was < 500 nM; at Human μ-opioid receptor, > 500 nM.
As for `CCCC(c1nc2ncc(Br)cc2c(=O)n1CC)N1C[C@@H](C)N[C@@H](C)C1` (stereo partly drawn) [Example 28, 6-bromo-2-(1-((3S,5R)-3,5-dimethylpiperazin-1-yl)butyl)-3-ethylpyrido[2,3-d]pyrimidin-4(3H)-one], the Ki is < 500 nM in assay [1] and > 500 nM at Human μ-opioid receptor.
As for `CCC[C@H](c1nc2ccc(Br)cc2c(=O)n1CC)N1C[C@@H](C)N[C@@H](C)C1` [Example 29, 6-bromo-2-((R)-1-((3S,5R)-3,5-dimethylpiperazin-1-yl)butyl)-3-ethylquinazolin-4(3H)-one], the Ki in assay [1] is < 500 nM; at Human μ-opioid receptor, > 500 nM.
Take `CCC[C@@H](c1nc2ccc(Br)cc2c(=O)n1CC)N1C[C@@H](C)N[C@@H](C)C1` [Example 30, 6-bromo-2-((S)-1-((3S,5R)-3,5-dimethylpiperazin-1-yl)butyl)-3-ethylquinazolin-4(3H)-one]: the Ki in assay [1] is 500 to 5000 nM; at Human μ-opioid receptor, > 500 nM.
For `CCC[C@@H](c1nc2ccccc2c(=O)n1C)N1C[C@@H](C)N[C@@H](C)C1` [Example 31, 2-((S)-1-((3S,5R)-3,5-dimethylpiperazin-1-yl)butyl)-3-methylquinazolin-4(3H)-one] the same measures were 500 to 5000 nM and > 500 nM.
`CCC[C@H](c1nc2ccccc2c(=O)n1C)N1C[C@@H](C)N[C@@H](C)C1` [Example 32, 2-((R)-1-((3S,5R)-3,5-dimethylpiperazin-1-yl)butyl)-3-methylquinazolin-4(3H)-one]: the Ki in assay [1] was < 500 nM; at Human μ-opioid receptor, > 500 nM.
For the compound `CCC[C@@H](c1nc2ccccc2c(=O)n1CC)N1C[C@@H](C)N[C@@H](C)C1` [Example 33, 2-((S)-1-((3S,5R)-3,5-Dimethylpiperazin-1-yl)butyl)-3-ethylquinazolin-4(3H)-one], in assay [1] (read-out: α2δ-1 binding), the Ki lay in the range of 500 to 5000 nM.
With `CCC[C@H](c1nc2ccccc2c(=O)n1CC)N1C[C@@H](C)N[C@@H](C)C1` [Example 34, 2-((R)-1-((3S,5R)-3,5-dimethylpiperazin-1-yl)butyl)-3-ethylquinazolin-4(3H)-one], the Ki in assay [1] is < 500 nM; at Human μ-opioid receptor, > 500 nM.
